In patent US12077503B2, “Substituted cyclic amides and their use as herbicides” (FMC CORPORATION, priority 2015, dated 2024):

Assays:
Format in all cases: in vivo
Kochia (Kochia scoparia) [1] = assay: Test A preemergence; details: Bassia scoparia, pre-emergence, 240 h, 0 to 100 scale where 0 is no effect and 100 is complete control, read-out: Kochia plant response rating; for pest or weed control at 31 g/ha: 31 g ai/ha, Preemergence; for pest or weed control at 125 g/ha: 125 g ai/ha, preemergence, visual injury rating, approximately 10 d
How it was run: (§1)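 Seeded soil received test chemicals as a preemergence directed spray, and seedlings at one to two leaves, 2–10 cm tall, received them postemergence, in a non-phytotoxic, surfactant-containing solvent mixture. Pots were held in a greenhouse for approximately 10 d, then rated for injury from 0, no effect, to 100, complete control.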

[2] = system: pigweed (Amaranthus retroflexus); assay: Test A preemergence; details: Amaranthus retroflexus, pre-emergence, 240 h, 0 to 100 scale where 0 is no effect and 100 is complete control, read-out: Pigweed plant response rating; for pest or weed control at 31 g/ha: 31 g ai/ha, Preemergence; for pest or weed control at 125 g/ha: 125 g ai/ha, preemergence, visual injury rating, approximately 10 d
[3] = system: barnyardgrass (Echinochloa crus-galli); assay: Test A preemergence; details: Echinochloa crus-galli, pre-emergence, 240 h, 0 to 100 scale where 0 is no effect and 100 is complete control, read-out: Barnyardgrass plant response rating; for pest or weed control at 31 g/ha: 31 g ai/ha, Preemergence; for pest or weed control at 125 g/ha: 125 g ai/ha, preemergence, visual injury rating, approximately 10 d
How it was run: as §1

[4] = system: ryegrass, Italian (Italian ryegrass, Lolium multiflorum); assay: Test A preemergence; details: Lolium multiflorum, pre-emergence, 240 h, 0 to 100 scale where 0 is no effect and 100 is complete control, read-out: Ryegrass, Italian plant response rating; for pest or weed control at 31 g/ha: 31 g ai/ha, Preemergence; for pest or weed control at 125 g/ha: 125 g ai/ha, preemergence, visual injury rating, approximately 10 d
How it was run: as §1

[5] = system: ragweed (common ragweed, Ambrosia elatior); assay: Test A preemergence; details: Ambrosia artemisiifolia, pre-emergence, 240 h, 0 to 100 scale where 0 is no effect and 100 is complete control, read-out: Ragweed plant response rating; for pest or weed control at 31 g/ha: 31 g ai/ha, Preemergence; for pest or weed control at 125 g/ha: 125 g ai/ha, preemergence, visual injury rating, approximately 10 d
How it was run: as §1

[6] = system: giant foxtail (Setaria faberii); assay: Test A preemergence; details: Setaria faberi, pre-emergence, 240 h, 0 to 100 scale where 0 is no effect and 100 is complete control, read-out: Foxtail, Giant plant response rating; for pest or weed control at 31 g/ha: 31 g ai/ha, Preemergence; for pest or weed control at 125 g/ha: 125 g ai/ha, preemergence, visual injury rating, approximately 10 d
How it was run: as §1

[7] = system: blackgrass (Alopecurus myosuroides); assay: Test A postemergence; details: Alopecurus myosuroides, post-emergence, 240 h, Postemergence, read-out: Blackgrass plant response rating (0 to 100 scale); for pest or weed control at 125 g/ha: 125 g ai/ha, visual rating about 10 d after treatment; for pest or weed control at 31 g/ha: 31 g ai/ha, 0 is no effect, 100 is complete control
How it was run: as §1

Kochia (Kochia scoparia) [8] = assay: Test A postemergence; details: Bassia scoparia, post-emergence, 240 h, Postemergence, read-out: Kochia plant response rating (0 to 100 scale); for pest or weed control at 125 g/ha: 125 g ai/ha, visual rating about 10 d after treatment; for pest or weed control at 31 g/ha: 31 g ai/ha, 0 is no effect, 100 is complete control
How it was run: as §1

[9] = system: pigweed (Amaranthus retroflexus); assay: Test A postemergence; details: Amaranthus retroflexus, post-emergence, 240 h, Postemergence, read-out: Pigweed plant response rating (0 to 100 scale); for pest or weed control at 125 g/ha: 125 g ai/ha, visual rating about 10 d after treatment; for pest or weed control at 31 g/ha: 31 g ai/ha, 0 is no effect, 100 is complete control
How it was run: as §1

[10] = system: wheat (Triticum aestivum); assay: Test A postemergence; details: Triticum aestivum, post-emergence, 240 h, Postemergence, read-out: Wheat plant response rating (0 to 100 scale); for plant injury at 125 g/ha: 125 g ai/ha, visual rating about 10 d after treatment; for plant injury at 31 g/ha: 31 g ai/ha, 0 is no effect, 100 is complete control
How it was run: as §1

[11] = system: barnyardgrass (Echinochloa crus-galli); assay: Test A postemergence; details: Echinochloa crus-galli, post-emergence, 240 h, Postemergence; for pest or weed control at 125 g/ha: 125 g ai/ha, visual rating about 10 d after treatment, read-out: Barnyardgrass plant response rating (0 to 100 scale, 0 no effect, 100 complete control); for pest or weed control at 31 g/ha: 31 g ai/ha, 0 is no effect, 100 is complete control, read-out: Barnyardgrass plant response rating (0 to 100 scale)
How it was run: as §1

[12] = system: ryegrass, Italian (Italian ryegrass, Lolium multiflorum); assay: Test A postemergence; details: Lolium multiflorum, post-emergence, 240 h, Postemergence, read-out: Ryegrass, Italian plant response rating (0 to 100 scale); for pest or weed control at 125 g/ha: 125 g ai/ha, visual rating about 10 d after treatment; for pest or weed control at 31 g/ha: 31 g ai/ha, 0 is no effect, 100 is complete control
How it was run: as §1

[13] = system: Galium (catchweed bedstraw, Galium aparine); assay: Test A postemergence; details: Galium, post-emergence, 240 h, Postemergence, read-out: Galium plant response rating (0 to 100 scale); for pest or weed control at 125 g/ha: 125 g ai/ha, visual rating about 10 d after treatment; for pest or weed control at 31 g/ha: 31 g ai/ha, 0 is no effect, 100 is complete control
How it was run: as §1

corn (Zea mays) = assay: Test A postemergence; details: Zea mays, post-emergence, 240 h, Postemergence, read-out: Corn plant response rating (0 to 100 scale); for plant injury at 125 g/ha: 125 g ai/ha, visual rating about 10 d after treatment; for plant injury at 31 g/ha: 31 g ai/ha, 0 is no effect, 100 is complete control
How it was run: as §1

[14] = system: ragweed (common ragweed, Ambrosia elatior); assay: Test A postemergence; details: Ambrosia artemisiifolia, post-emergence, 240 h, Postemergence, read-out: Ragweed plant response rating (0 to 100 scale); for pest or weed control at 125 g/ha: 125 g ai/ha, visual rating about 10 d after treatment; for pest or weed control at 31 g/ha: 31 g ai/ha, 0 is no effect, 100 is complete control
How it was run: as §1

[15] = system: giant foxtail (Setaria faberii); assay: Test A postemergence; details: Setaria faberi, post-emergence, 240 h, Postemergence, read-out: Foxtail, Giant plant response rating (0 to 100 scale); for pest or weed control at 125 g/ha: 125 g ai/ha, visual rating about 10 d after treatment; for pest or weed control at 31 g/ha: 31 g ai/ha, 0 is no effect, 100 is complete control
How it was run: as §1

[16] = system: barnyardgrass (Echinochloa crus-galli); assay: Test B flooded paddy test; details: Echinochloa crus-galli, 250 g ai/ha, Flood; 0 to 100 scale where 0 is no effect and 100 is complete control; read-out: Barnyardgrass plant response rating
How it was run: (§2)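 Greenhouse paddy pots with 2-leaf stage plants received compound by direct addition to floodwater 3 cm deep, kept at that level. Scored visually at 13–15 d versus controls (0 no effect; 100 complete control).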

[17] = system: ducksalad (Heteranthera limosa); assay: Test B flooded paddy test; details: Heteranthera limosa, 250 g ai/ha, Flood; 0 to 100 scale where 0 is no effect and 100 is complete control; read-out: Ducksalad plant response rating
How it was run: as §2

rice (Oryra sativa) = assay: Test B flooded paddy test; details: Oryza sativa, 250 g ai/ha, Flood; 0 to 100 scale where 0 is no effect and 100 is complete control; read-out: Rice plant response rating
How it was run: as §2

[18] = system: sedge, umbrella (small-flower umbrella sedge, Cyperus difformis); assay: Test B flooded paddy test; details: Cyperus difformis, 250 g ai/ha, Flood; 0 to 100 scale where 0 is no effect and 100 is complete control; read-out: Sedge, Umbrella plant response rating
How it was run: as §2

Row | SMILES | pest or weed control at 31 g/ha (Kochia (Kochia scoparia) [1]) [%] | pest or weed control at 125 g/ha (Kochia (Kochia scoparia) [1]) [%] | pest or weed control at 31 g/ha [2] [%] | pest or weed control at 125 g/ha [2] [%] | pest or weed control at 31 g/ha [3] [%] | pest or weed control at 125 g/ha [3] [%] | pest or weed control at 31 g/ha [4] [%] | pest or weed control at 125 g/ha [4] [%] | pest or weed control at 31 g/ha [5] [%] | pest or weed control at 125 g/ha [5] [%] | pest or weed control at 31 g/ha [6] [%] | pest or weed control at 125 g/ha [6] [%] | pest or weed control at 125 g/ha [7] [%] | pest or weed control at 31 g/ha [7] [%] | pest or weed control at 125 g/ha (Kochia (Kochia scoparia) [8]) [%] | pest or weed control at 31 g/ha (Kochia (Kochia scoparia) [8]) [%] | pest or weed control at 125 g/ha [9] [%] | pest or weed control at 31 g/ha [9] [%] | plant injury at 125 g/ha [10] [%] | plant injury at 31 g/ha [10] [%] | other results
1 | O=C(Nc1ccccc1F)[C@H]1C(=O)N(CC(F)F)C[C@@H]1c1cccc(C(F)(F)F)c1 [Compound 1295] | 0 | 0 | 0 | 0 | 0 | 0 | 0 | 0 | 0 | 0 | 0 | 40 | 0 | 0 | 0 | 0 | 0 | 0 | 0 | 0 | pest or weed control at 125 g/ha [11]: 0%; pest or weed control at 31 g/ha [11]: 0%; pest or weed control at 125 g/ha [12]: 0%; pest or weed control at 31 g/ha [12]: 0%; pest or weed control at 125 g/ha [13]: 0%; pest or weed control at 31 g/ha [13]: 0%; plant injury at 125 g/ha (corn (Zea mays)): 0%; plant injury at 31 g/ha (corn (Zea mays)): 0%; pest or weed control at 125 g/ha [14]: 0%; pest or weed control at 31 g/ha [14]: 0%; pest or weed control at 125 g/ha [15]: 0%; pest or weed control at 31 g/ha [15]: 0%; pest or weed control at 250 g/ha [16]: 0%; pest or weed control at 250 g/ha [17]: 0%; pest or weed control at 250 g/ha (rice (Oryra sativa)): 0%; pest or weed control at 250 g/ha [18]: 0%
2 | CN1C[C@H](c2cccc(C#N)c2)[C@@H](C(=O)Nc2ccc(F)c(F)c2F)C1=O [Compound 1287] | 20 | 70 | 0 | 40 | 90 | 100 | 0 | 40 | 0 | 0 | 100 | 100 | 20 | 0 | 30 | 0 | 0 | 0 | 0 | 0 | pest or weed control at 125 g/ha [11]: 90%; pest or weed control at 31 g/ha [11]: 80%; pest or weed control at 125 g/ha [12]: 0%; pest or weed control at 31 g/ha [12]: 0%; pest or weed control at 125 g/ha [13]: 40%; pest or weed control at 31 g/ha [13]: 30%; plant injury at 125 g/ha (corn (Zea mays)): 0%; plant injury at 31 g/ha (corn (Zea mays)): 0%; pest or weed control at 125 g/ha [14]: 0%; pest or weed control at 31 g/ha [14]: 0%; pest or weed control at 125 g/ha [15]: 80%; pest or weed control at 31 g/ha [15]: 70%; pest or weed control at 250 g/ha [16]: 75%; pest or weed control at 250 g/ha [17]: 80%; pest or weed control at 250 g/ha (rice (Oryra sativa)): 15%; pest or weed control at 250 g/ha [18]: 0%
